Results reported in PMC4832243, “Discovery of Potent VEGFR-2 Inhibitors based on Furopyrimidine and Thienopyrimidne Scaffolds as Cancer Targeting Agents” (Scientific Reports, 2016).

How the values were obtained:
VEGFR-2 (KDR) = target: T1, VEGFR-2 (KDR) (Homo sapiens, UniProt P35968); assay: In vitro VEGFR-2 tyrosine kinase activity (Kinase-Glo Plus luminescence, BPS Bioscience); format: biochemical; settings: for inhibition at 10 µM: single dose concentration of 10 μM; for IC50: 5 concentrations 1 nM - 10 μM
T1 construct: purchased BPS Bioscience 40301

[1] = system: HUVEC umbilical vein endothelial cells; assay: In vitro HUVEC anti-proliferative assay (alamarBlue); format: cell-based; settings: Homo sapiens, HUVEC proliferation at 10 μM, 72 hours; for activity at 10 µM: read-out: % Cell growth; for inhibition at 10 µM: read-out: % Cell inhibition
c-Raf = c-Raf (Homo sapiens, UniProt P04049); assay: In vitro multiple-kinase inhibition assay, c-Raf; format: biochemical
Method: (§1) In vitro multiple-kinase inhibition assay. […] Kinase enzymatic activity of the tested compounds was evaluated against a reference kinase inhibitor at 10 μM (Table 2).
(§2) The multiple kinases activity at single dose concentration of 10 μM was performed, c-Kit, c-Raf, c-Src, RET served as the enzyme source. […] Kinase-Glo Plus Luminescence kinase assay kit (Promega#V3772), ADP-Glo Luminescence assay kit was used for c-kit assay (Supplementary). […]
(§3) mM MgCl2, 0.1 mg/ml BSA, 1 mM DTT, 10 µM ATP, Kinase substrate and VEGFR. After the enzymatic reaction, 50 µl of Kinase-Glo Plus Luminescence kinase assay solution (Promega) was added to each reaction and incubate the plate for 5 minutes at room temperature.
(§4) Luminescence signal was measured using a BioTek Synergy 2 microplate reader. VEGFR activity assays were performed in duplicate at each concentration.
(§5) The luminescence data were analyzed using the computer software, Graphpad Prism. The difference between luminescence intensities in the absence of VEGFR (Lut) and in the presence of VEGFR (Luc) was defined as 100 % activity (Lut – Luc). Using luminescence signal (Lu) in the presence of the compound, % activity was calculated as:
(§6) % activity = {(Lut - Lu)/(Lut - Luc)}×100%, where Lu= the luminescence intensity in the […]
(§7) IC50 determination for inhibitor against VEGFR was calculated. The values of % activity versus a series of compound concentrations (1 nM - 10 nM - 100 nM - 1 µM - 10 µM) were then […]
(§8) or Hill coefficient. The IC50 value was determined by the concentration causing a half-maximal […]
(§9) In vitro multiple-kinase inhibition assay
(§10) Luminescence signal was measured using a BioTek Synergy 2 microplate reader […]
(§11) The luminescence data were analyzed using the same computer software and the same protocol

c-Src = c-Src (Homo sapiens, UniProt P12931); assay: In vitro multiple-kinase inhibition assay, c-Src; format: biochemical
Method: as §1, §2, §3, §4, §5, §6, §7, §8, §9, §10, §11

RET = RET (Homo sapiens, UniProt P07949); assay: In vitro multiple-kinase inhibition assay, RET; format: biochemical
Method: as §1, §2, §3, §4, §5, §6, §7, §8, §9, §10, §11

c-Kit = c-Kit (Homo sapiens, UniProt P10721); assay: In vitro multiple-kinase inhibition assay, c-Kit (ADP-Glo); format: biochemical
Method: as §1, §2, §3, §4, §5, §6, §7, §8, §9
The assay was performed using the same conditions for VEGFR-2 activity assay (section 5.2.1.1). The assays for c-Kit was an exception, it was performed using ADP-Glo Kinase assay reagents (Promega). It measures kinase activity by quantitating the ADP amount produced from the enzymatic reaction. The luminescent signal from the assay is correlated with the amount of ADP present and is directly correlated with the amount of kinase activity. Other conditions are same to the previous section except the final reaction volume was reduced to 25 µl. After the 40 min kinase reaction at 30 °C, 25 µl of ADP-Glo reagent was added and incubated for 45 min at room temperature followed by another 50 min incubation with 50 µl of Kinase detection mixture.
as §10, §11

[2] = system: Ehrlich ascites carcinoma (EAC) solid tumor; assay: In vivo anticancer activity, EAC solid tumor murine model; set-up: species or system Swiss albino mice; settings: 10 mg/kg/day po, once daily for 8 consecutive days
Method: Animals. Female Swiss albino mice weighing 15–20 g were used in the present study. They were obtained from the animal breeding laboratory, National Cancer Institute (NCI), Cairo University, Egypt. Animals were kept in our animal facility, faculty of pharmacy, Ain Shams university at 25 ± 2 °C and a relative humidity of 40–45% with alternative day and night cycles of 12 h each. Animals had free access to pellet food and water ad libitum. Standard diet pellets (El-Nasr, Abu Zaabal, Egypt) contained not less than 20% protein, 5% fiber, 3.5% fat, 6.5% ash and a vitamin mixture. Animal care and experiments were conducted in accordance with the protocols approved by the Ethics Research Committee, Faculty of Pharmacy, Ain Shams University, following the Institutional Animal Care and Use Committee guidelines.
Tumor cells preparation and transplantation. Ehrlich ascites carcinoma (EAC) cells were obtained from NCI, Cairo University, Egypt. EAC cells were maintained in the ascitic form in Swiss albino mice by intraperitoneal transplantation of each mouse every 10 days. Ascitic fluid was drawn from tumor-bearing mice at the log phase (7–8th day of tumor bearing) of the tumor cells. The freshly drawn fluid was diluted with ice-cold sterile isotonic saline. 200 μl tumor cell suspension containing 2 × 10^6 tumor cells were then subcutaneously injected in each mouse.
Experimental design. Swiss albino mice were divided into six groups (n = 6 per group).
Evaluation of effectiveness. Tumor growth curve was drawn according to the change in tumor volume from first day of treatment (day 0) till day 7. Longest and shortest diameters of the solid tumor were monitored using a digital vernier caliper. Tumor volume (TV) of each animal was calculated using the following formula: […]
Tumor growth inhibition (TGI) was calculated as follows.
RTV = (Tumor volume at the day of measurement)/Tumor volume at the initial day.
Histopathological Examination
thickness by slidge microtome.
graded ethanol solutions.

T1 sequence (P35968 20-1356): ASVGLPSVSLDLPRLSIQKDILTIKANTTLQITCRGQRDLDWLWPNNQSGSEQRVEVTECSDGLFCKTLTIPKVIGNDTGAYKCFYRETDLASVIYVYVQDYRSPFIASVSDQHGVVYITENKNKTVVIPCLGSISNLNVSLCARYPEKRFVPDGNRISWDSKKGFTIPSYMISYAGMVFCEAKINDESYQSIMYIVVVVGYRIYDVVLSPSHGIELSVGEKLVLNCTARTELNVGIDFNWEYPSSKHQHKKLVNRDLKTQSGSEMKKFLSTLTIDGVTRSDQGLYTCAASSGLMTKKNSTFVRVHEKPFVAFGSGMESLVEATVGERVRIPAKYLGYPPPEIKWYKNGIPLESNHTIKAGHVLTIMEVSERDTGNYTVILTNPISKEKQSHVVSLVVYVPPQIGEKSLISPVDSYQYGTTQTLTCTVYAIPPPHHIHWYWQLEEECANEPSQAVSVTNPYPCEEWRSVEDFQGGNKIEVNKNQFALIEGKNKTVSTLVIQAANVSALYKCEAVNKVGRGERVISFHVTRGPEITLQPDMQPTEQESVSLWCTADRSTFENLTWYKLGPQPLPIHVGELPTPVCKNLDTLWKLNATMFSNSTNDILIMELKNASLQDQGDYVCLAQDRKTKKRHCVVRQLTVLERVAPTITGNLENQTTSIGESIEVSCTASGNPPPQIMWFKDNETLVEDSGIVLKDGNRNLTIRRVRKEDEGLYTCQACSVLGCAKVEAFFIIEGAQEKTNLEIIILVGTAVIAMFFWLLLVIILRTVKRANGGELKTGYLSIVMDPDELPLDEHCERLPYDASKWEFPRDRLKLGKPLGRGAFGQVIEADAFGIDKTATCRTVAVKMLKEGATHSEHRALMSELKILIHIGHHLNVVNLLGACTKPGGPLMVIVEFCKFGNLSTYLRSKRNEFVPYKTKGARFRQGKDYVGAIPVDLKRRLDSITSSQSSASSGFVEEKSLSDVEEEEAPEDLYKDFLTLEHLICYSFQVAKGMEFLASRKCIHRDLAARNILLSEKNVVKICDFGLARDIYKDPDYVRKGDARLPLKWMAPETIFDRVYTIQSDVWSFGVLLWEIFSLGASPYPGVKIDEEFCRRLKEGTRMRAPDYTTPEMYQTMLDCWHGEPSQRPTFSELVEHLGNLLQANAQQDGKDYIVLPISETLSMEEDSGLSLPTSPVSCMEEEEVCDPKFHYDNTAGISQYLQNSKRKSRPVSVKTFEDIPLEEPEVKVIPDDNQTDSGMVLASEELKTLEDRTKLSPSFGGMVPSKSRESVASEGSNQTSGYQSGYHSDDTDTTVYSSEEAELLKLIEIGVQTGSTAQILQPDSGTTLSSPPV
c-Src, sequence (P12931 whole entry, species assumed): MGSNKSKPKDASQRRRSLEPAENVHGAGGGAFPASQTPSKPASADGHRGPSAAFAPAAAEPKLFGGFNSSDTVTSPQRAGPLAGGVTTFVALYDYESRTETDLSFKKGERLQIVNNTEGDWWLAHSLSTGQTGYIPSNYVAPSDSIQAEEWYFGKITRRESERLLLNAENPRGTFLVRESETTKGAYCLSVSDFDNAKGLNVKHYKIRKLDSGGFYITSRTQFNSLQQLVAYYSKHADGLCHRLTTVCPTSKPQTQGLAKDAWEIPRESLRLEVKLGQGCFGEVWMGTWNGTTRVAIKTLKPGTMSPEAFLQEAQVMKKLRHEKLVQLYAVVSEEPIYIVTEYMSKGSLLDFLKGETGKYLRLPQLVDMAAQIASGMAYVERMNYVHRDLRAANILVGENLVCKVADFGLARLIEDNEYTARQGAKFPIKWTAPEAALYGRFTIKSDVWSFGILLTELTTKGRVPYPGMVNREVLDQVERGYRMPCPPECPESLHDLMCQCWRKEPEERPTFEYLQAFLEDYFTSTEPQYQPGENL
RET, sequence (P07949 29-1114, species assumed): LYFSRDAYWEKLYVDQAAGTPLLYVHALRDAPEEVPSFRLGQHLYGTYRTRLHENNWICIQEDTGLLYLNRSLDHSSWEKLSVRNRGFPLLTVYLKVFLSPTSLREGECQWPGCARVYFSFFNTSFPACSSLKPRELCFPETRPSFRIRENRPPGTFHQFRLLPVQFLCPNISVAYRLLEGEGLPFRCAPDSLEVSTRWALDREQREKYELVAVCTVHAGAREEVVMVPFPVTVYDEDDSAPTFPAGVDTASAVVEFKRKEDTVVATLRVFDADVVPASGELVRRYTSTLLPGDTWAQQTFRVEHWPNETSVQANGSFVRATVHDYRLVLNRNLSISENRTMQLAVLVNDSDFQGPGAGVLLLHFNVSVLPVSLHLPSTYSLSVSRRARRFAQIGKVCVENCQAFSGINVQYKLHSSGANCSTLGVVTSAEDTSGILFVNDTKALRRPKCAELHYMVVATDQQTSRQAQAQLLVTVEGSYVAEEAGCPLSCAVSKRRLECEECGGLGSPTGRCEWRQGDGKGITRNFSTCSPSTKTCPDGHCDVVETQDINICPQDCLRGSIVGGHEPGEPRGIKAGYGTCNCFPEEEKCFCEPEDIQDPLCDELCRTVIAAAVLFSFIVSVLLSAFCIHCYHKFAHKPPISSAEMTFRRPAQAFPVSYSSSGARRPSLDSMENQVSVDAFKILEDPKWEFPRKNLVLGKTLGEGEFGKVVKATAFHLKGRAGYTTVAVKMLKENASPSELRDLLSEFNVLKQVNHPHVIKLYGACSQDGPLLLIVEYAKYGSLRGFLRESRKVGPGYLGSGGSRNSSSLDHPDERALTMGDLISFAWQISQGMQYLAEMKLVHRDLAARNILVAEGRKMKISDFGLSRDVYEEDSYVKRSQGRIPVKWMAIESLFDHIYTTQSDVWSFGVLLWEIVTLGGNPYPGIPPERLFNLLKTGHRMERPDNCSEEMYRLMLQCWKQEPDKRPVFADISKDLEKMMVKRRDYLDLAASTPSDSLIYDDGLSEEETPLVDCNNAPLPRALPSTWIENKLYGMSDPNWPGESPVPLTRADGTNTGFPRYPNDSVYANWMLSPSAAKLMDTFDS
c-Raf, sequence (P04049 whole entry, species assumed): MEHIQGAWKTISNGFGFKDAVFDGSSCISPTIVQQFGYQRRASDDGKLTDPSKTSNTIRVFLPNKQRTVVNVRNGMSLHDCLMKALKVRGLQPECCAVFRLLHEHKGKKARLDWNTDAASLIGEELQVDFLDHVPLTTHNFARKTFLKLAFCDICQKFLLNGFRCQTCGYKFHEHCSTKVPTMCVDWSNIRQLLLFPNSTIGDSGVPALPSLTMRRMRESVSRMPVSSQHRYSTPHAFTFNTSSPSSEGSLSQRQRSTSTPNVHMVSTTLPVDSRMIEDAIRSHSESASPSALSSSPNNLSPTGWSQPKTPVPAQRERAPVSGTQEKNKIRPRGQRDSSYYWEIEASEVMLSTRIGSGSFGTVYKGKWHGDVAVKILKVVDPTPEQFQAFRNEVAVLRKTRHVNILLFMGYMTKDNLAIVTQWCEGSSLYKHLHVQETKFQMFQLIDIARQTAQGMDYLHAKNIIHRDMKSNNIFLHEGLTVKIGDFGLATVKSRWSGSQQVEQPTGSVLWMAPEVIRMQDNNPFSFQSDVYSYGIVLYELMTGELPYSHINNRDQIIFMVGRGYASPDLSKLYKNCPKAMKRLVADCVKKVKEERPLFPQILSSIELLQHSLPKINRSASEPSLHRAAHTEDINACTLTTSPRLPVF
c-Kit, sequence (P10721 26-976): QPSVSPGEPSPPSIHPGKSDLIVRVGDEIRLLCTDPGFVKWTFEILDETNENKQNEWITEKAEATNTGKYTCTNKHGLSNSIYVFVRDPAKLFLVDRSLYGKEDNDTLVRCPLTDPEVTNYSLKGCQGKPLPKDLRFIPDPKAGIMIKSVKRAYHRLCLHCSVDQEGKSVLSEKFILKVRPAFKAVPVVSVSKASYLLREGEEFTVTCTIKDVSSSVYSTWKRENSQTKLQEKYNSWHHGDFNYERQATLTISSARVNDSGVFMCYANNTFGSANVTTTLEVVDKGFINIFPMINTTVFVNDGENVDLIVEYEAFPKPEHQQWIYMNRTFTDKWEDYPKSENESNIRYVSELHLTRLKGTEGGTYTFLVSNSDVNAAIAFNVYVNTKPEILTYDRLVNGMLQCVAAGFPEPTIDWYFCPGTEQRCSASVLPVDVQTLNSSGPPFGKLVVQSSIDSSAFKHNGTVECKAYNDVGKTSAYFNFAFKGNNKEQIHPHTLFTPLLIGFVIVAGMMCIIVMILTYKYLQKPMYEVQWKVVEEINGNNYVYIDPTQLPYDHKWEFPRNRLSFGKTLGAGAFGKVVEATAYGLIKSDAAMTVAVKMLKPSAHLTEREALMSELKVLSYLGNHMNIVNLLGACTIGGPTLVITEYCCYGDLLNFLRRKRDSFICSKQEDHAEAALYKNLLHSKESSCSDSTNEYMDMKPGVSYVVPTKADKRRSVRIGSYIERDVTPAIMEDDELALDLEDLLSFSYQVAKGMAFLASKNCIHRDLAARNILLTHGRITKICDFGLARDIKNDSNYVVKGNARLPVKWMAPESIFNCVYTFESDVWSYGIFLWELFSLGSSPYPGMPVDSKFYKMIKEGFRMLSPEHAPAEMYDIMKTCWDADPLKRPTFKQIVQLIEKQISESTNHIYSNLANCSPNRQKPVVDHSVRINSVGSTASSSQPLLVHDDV

Compound	inhibition at 10 µM (VEGFR-2 (KDR))	melting point	also measured
CCOC(=O)c1c(C)oc2ncnc(Nc3ccc(NC(=O)c4cccc(Cl)c4)cc3)c12 [Compound 13a]	8%	232 to 236 °C	
CCOC(=O)c1c(C)oc2ncnc(Nc3ccc(NC(=O)c4ccc(Cl)cc4)cc3)c12 [Compound 13b]	15%	> 250 °C	
CCOC(=O)c1c(C)oc2ncnc(Nc3ccc(C(=O)Nc4ccc(C)cc4)cc3)c12 [Compound 14c]	14%	235 to 238 °C	
CCOC(=O)c1c(C)oc2ncnc(Nc3ccc(C(=O)Nc4ccc(Cl)c(C(F)(F)F)c4)cc3)c12 [Compound 14d]	14%	238 to 240 °C	
CCOC(=O)c1c(C)oc2ncnc(Nc3ccc(NC(=O)Nc4ccccc4)cc3)c12 [Compound 15a]	19%		
CCOC(=O)c1c(C)oc2ncnc(Nc3ccc(NC(=O)Nc4cccc(C)c4)cc3)c12 [Compound 15b]		> 250 °C	IC50 (VEGFR-2 (KDR)): 946 nM; activity at 10 µM [1]: 0.5%; inhibition at 10 µM [1]: 99.5%
CCOC(=O)c1c(C)oc2ncnc(Nc3ccc(NC(=O)Nc4cccc(OC)c4)cc3)c12 [Compound 15c]	62%	220 to 222 °C	
CCOC(=O)c1c(C)oc2ncnc(Nc3ccc(NC(=O)Nc4ccc(Cl)cc4)cc3)c12 [Compound 15e]	14%	262 to 265 °C	
CCOC(=O)c1c(C)oc2ncnc(Nc3ccc(NC(=O)Nc4ccc(C)c(Cl)c4)cc3)c12 [Compound 15f]		254 to 256 °C	IC50 (VEGFR-2 (KDR)): 2100 nM; activity at 10 µM [1]: 97.7%; inhibition at 10 µM [1]: 2.32%
CCOC(=O)c1c(C)oc2ncnc(Nc3ccc(NC(=O)Nc4cccc(C(C)=O)c4)cc3)c12 [Compound 15g]	> 70%	240 to 244 °C	
CCOC(=O)c1c(C)oc2ncnc(Nc3ccc(NC(=O)Nc4cccc(Br)c4)cc3)c12 [Compound 15h]	45%	224 to 228 °C	
CCOC(=O)c1c(C)oc2ncnc(Oc3ccc(NC(=O)Nc4ccccc4)cc3)c12 [Compound 16a]	27%	183 to 185 °C	
CCOC(=O)c1c(C)oc2ncnc(Oc3ccc(NC(=O)Nc4cccc(C)c4)cc3)c12 [Compound 16b]	> 70%	116 to 119 °C	IC50 (VEGFR-2 (KDR)): 1000 nM; activity at 10 µM [1]: 73.3%; inhibition at 10 µM [1]: 26.6%
CCOC(=O)c1c(C)oc2ncnc(Oc3ccc(NC(=O)Nc4cccc(OC)c4)cc3)c12 [Compound 16c]			IC50 (VEGFR-2 (KDR)): 551 nM; activity at 10 µM [1]: 32.1%; inhibition at 10 µM [1]: 67.9%
CCOC(=O)c1c(C)oc2ncnc(Oc3ccc(NC(=O)Nc4ccc(Cl)cc4)cc3)c12 [Compound 16d]	40%	215 to 219 °C	
CCOC(=O)c1c(C)oc2ncnc(Oc3ccc(NC(=O)Nc4ccc(C)c(Cl)c4)cc3)c12 [Compound 16e]	> 70%		inhibition at 10 µM (c-Raf): 53%; inhibition at 10 µM (c-Src): 1%; IC50 (VEGFR-2 (KDR)): 122 nM; activity at 10 µM [1]: 88.9%; inhibition at 10 µM [1]: 11.1%; inhibition at 10 µM (RET): 84%; inhibition at 10 µM (c-Kit): 72%
Cc1cccc(NC(=O)Nc2ccc(Nc3ncnc4sc5c(c34)CCCC5)cc2)c1 [Compound 20b]	47%	> 250 °C	
O=C(Nc1ccc(Cl)cc1)Nc1ccc(Nc2ncnc3sc4c(c23)CCCC4)cc1 [Compound 20e]	32%	> 300 °C	
Cc1ccc(NC(=O)Nc2ccc(Nc3ncnc4sc5c(c34)CCCC5)cc2)cc1Cl [Compound 20f]	> 70%	> 300 °C	
CC(=O)c1cccc(NC(=O)Nc2ccc(Nc3ncnc4sc5c(c34)CCCC5)cc2)c1 [Compound 20g]	> 70%	265 to 269 °C	IC50 (VEGFR-2 (KDR)): 1500 nM; activity at 10 µM [1]: 29.2%; inhibition at 10 µM [1]: 70.8%
CNC(=O)c1cc(Oc2ccc(NC(=O)Nc3ccc(Cl)c(C(F)(F)F)c3)cc2)ccn1.Cc1ccc(S(=O)(=O)O)cc1 [Sorafenib p-toluenesulfonate, sorafenib p-toluenesulfonate, reference compound]			TGI (%) [2]: 80.8%
CN[C@@H]1C[C@H]2O[C@@](C)([C@@H]1OC)n1c3ccccc3c3c4c(c5c6ccccc6n2c5c31)C(=O)NC4 [Staurosporine, reference compound]			inhibition at 1 µM (c-Src; read-out: Inhibition %, c-Src, reference inhibitor): 98%
